Values quoted from earlier work as cited in patent US20060134230A1, “Weight loss composition and formulation” (priority 2004, published 2006).

Tests used:
[1] = test system: oxidative phosphorylation
[2] = test system: glucose transport at the brush border of the small intestine; conditions: in vivo
[3] = test system: 3T3-L1; conditions: 3T3-L1 preadipocyte
[4] = target: fatty acid synthase (Homo sapiens, UniProt P49327)
[5] = test system: lipases; conditions: in vivo

Chain of fatty acid synthase (P49327 whole entry, species assumed): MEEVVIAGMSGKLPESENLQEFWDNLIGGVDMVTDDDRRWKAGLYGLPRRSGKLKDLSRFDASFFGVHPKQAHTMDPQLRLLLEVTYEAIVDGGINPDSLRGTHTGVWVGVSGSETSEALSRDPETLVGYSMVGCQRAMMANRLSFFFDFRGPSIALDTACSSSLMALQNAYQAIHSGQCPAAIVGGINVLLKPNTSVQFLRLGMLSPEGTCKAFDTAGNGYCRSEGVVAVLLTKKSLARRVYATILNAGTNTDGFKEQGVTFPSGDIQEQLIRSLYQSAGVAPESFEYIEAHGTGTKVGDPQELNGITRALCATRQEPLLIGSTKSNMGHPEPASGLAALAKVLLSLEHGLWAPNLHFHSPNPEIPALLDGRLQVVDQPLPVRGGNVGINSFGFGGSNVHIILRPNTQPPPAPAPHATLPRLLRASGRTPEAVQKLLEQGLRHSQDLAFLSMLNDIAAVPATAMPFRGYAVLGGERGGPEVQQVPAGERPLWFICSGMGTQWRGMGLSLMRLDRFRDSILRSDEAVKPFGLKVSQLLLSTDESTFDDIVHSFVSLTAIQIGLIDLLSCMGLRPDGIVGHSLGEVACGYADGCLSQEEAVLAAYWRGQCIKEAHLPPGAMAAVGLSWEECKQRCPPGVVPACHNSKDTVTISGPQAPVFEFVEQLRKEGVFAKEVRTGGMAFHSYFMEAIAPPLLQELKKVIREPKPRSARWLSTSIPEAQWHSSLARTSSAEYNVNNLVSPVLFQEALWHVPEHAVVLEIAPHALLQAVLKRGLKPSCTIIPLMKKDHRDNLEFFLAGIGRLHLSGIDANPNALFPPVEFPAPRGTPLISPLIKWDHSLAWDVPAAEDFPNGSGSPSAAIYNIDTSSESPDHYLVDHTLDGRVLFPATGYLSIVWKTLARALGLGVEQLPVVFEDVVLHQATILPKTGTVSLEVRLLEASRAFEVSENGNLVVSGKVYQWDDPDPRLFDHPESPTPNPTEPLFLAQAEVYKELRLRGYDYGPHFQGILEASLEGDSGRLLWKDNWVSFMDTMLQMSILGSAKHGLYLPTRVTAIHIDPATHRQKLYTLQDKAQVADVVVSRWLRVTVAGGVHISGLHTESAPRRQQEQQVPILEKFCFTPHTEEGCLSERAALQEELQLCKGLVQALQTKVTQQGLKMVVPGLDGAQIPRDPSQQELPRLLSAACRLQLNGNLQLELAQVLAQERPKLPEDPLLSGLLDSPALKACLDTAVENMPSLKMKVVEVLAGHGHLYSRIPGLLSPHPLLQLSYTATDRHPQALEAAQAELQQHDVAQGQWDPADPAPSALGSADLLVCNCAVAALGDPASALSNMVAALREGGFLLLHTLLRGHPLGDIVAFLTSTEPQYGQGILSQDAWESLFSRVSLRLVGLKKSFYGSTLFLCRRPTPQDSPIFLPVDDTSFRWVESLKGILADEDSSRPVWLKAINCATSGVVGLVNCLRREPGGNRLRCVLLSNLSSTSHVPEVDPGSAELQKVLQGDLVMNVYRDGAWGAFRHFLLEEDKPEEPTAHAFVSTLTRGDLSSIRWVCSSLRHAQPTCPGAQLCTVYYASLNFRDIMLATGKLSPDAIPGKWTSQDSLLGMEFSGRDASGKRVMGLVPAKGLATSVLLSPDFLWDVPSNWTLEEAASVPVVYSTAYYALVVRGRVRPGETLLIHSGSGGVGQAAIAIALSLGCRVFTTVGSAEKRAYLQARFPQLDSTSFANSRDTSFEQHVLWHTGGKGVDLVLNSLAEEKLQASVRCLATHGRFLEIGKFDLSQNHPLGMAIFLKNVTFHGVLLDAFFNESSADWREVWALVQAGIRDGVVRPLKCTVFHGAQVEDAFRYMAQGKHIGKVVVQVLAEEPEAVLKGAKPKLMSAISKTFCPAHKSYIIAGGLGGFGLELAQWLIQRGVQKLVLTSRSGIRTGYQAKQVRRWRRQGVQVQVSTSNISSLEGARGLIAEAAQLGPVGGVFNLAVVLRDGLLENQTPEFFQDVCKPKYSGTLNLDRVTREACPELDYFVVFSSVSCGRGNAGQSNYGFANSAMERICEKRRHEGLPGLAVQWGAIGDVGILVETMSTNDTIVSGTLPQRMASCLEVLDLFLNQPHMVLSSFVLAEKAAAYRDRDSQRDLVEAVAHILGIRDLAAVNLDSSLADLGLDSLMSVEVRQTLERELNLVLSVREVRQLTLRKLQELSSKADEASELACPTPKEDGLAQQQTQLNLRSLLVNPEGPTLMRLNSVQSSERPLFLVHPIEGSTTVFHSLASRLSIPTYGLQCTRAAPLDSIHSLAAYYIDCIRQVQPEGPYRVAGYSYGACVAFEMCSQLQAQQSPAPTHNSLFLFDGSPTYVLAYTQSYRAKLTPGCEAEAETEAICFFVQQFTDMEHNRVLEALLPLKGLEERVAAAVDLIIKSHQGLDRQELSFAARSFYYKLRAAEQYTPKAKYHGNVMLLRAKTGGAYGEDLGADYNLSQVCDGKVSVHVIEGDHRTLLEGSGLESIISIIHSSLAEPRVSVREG

CC(C)(O)[C@@H]1Cc2cc3ccc(=O)oc3cc2O1 [marmesin]
oxidative uncoupling [1]: act as oxidative uncouplers

CC(C)=CCOc1c2occc2cc2ccc(=O)oc12 [imperatorin]
oxidative uncoupling [1]: act as oxidative uncouplers

CC1(C)CC[C@]2(C(=O)O)CC[C@]3(C)C(=CC[C@@H]4[C@@]5(C)CC[C@H](O)C(C)(C)[C@@H]5CC[C@]43C)[C@@H]2C1 [oleanic acid]
glucose transport at the brush border of the small intestine [2]: inhibiting glucose transport at the brush border of the small intestine | transfer of glucose from the stomach to the small intestine [2]: suppress the transfer of glucose from the stomach to the small intestine

Cc1cc(O)c2c(c1)C(=O)c1cc(O)cc(O)c1C2=O [emodin, 3-methyl-1,6,8-trihydroxy-anthraquinone]
inhibition of differentiation of 3T3-L1 [3]: inhibition of differentiation of 3T3-L1 | inhibition effect on fatty acid synthase [4]: inhibition effect on fatty acid synthase, which is dose dependent

C=CC(C)(C)c1cc2cc3c(cc2oc1=O)O[C@H](C(C)(C)O)C3 [chalepin]
oxidative uncoupling [1]: act as oxidative uncouplers

CCCCCCCCCCC[C@@H](C[C@@H]1OC(=O)[C@H]1CCCCCC)OC(=O)[C@H](CC(C)C)NC=O [Xenical]
dietary fat blocked from being absorbed [5]: about 30%
